Measured values reported in ChEMBL document CHEMBL1201862, “PubChem BioAssay data set” (2004).
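Step 1: Grow cells in 96-well plates. Step 2: Expose to compound for 48 hours at 5 concentrations. Step 3: Interpolate endpoints linearly; if unreached, use highest concentration. The concentration for 50% growth inhibition is given as GI50.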 The source made the active and inactive calls. Cut-off read from the data, not from the text of the source: active = GI50 up to about 1.1 µM and inactive = higher.

What was measured:
Assay in all cases: DTP human tumour cell line panel, 48 h
HOP-92 = tested on: HOP-92
COLO 205 = tested on: COLO 205
KM12 = tested on: KM12
SR = tested on: SR
SN12C = tested on: SN12C
OVCAR-3 = tested on: OVCAR-3
SNB-19 = tested on: SNB-19
HT-29 = tested on: HT-29
TK-10 = tested on: TK-10
HL-60 = tested on: HL-60
SK-OV-3 = tested on: SK-OV-3
U-251 = tested on: U-251
MDA-N = tested on: MDA-N
SW-620 = tested on: SW-620
EKVX = tested on: EKVX
NCI-H226 = tested on: NCI-H226
CAKI-1 = tested on: CAKI-1
A549 = tested on: A549
ACHN = tested on: ACHN
RPMI-8226 = tested on: RPMI-8226
OVCAR-5 = tested on: OVCAR-5
SF-295 = tested on: SF-295
A498 = tested on: A498
LOX IMVI = tested on: LOX IMVI
SK-MEL-28 = tested on: SK-MEL-28
OVCAR-4 = tested on: OVCAR-4
K562 = tested on: K562
SK-MEL-2 = tested on: SK-MEL-2
OVCAR-8 = tested on: OVCAR-8
CCRF-CEM = tested on: CCRF-CEM
NCI/ADR-RES = tested on: NCI/ADR-RES
HCT-15 = tested on: HCT-15
DU-145 = tested on: DU-145
HCT-116 = tested on: HCT-116
NCI-H460 = tested on: NCI-H460
UO-31 = tested on: UO-31
HOP-62 = tested on: HOP-62
T47D = tested on: T47D
SNB-75 = tested on: SNB-75
HCC 2998 = tested on: HCC 2998
786-0 = tested on: 786-0
M14 = tested on: M14
NCI-H23 = tested on: NCI-H23
MOLT-4 = tested on: MOLT-4
MCF7 = tested on: MCF7
MDA-MB-435 = tested on: MDA-MB-435
UACC-257 = tested on: UACC-257
PC-3 = tested on: PC-3
MDA-MB-231 = tested on: MDA-MB-231
SK-MEL-5 = tested on: SK-MEL-5
UACC-62 = tested on: UACC-62
Malme-3M = tested on: Malme-3M
NCI-H522 = tested on: NCI-H522
RXF 393 = tested on: RXF 393
IGROV-1 = tested on: IGROV-1

## C1=C[C@]2(CCC13OCCO3)COc1ccccc12
HOP-92
  GI50: 46.7 µM (inactive)
COLO 205
  GI50: 88.7 µM (inactive)
KM12
  GI50: 26.3 µM (inactive)
SR
  GI50: 29.9 µM (inactive)
SN12C
  GI50: 74.8 µM (inactive)
OVCAR-3
  GI50: 36.1 µM (inactive)
SNB-19
  GI50: 38 µM (inactive)
HT-29
  GI50: 28.5 µM (inactive)
TK-10
  GI50: 49.1 µM (inactive)
HL-60
  GI50: 6.81 µM (inactive)
SK-OV-3
  GI50: 53.2 µM (inactive)
U-251
  GI50: 48.8 µM (inactive)
MDA-N
  GI50: 35.6 µM (inactive)
SW-620
  GI50: 54.8 µM (inactive)
EKVX
  GI50: 66.1 µM (inactive)
NCI-H226
  GI50: 31.9 µM (inactive)
CAKI-1
  GI50: > 100 µM (inactive)
A549
  GI50: > 100 µM (inactive)
ACHN
  GI50: 36.6 µM (inactive)
RPMI-8226
  GI50: 25.5 µM (inactive)
OVCAR-5
  GI50: 30.9 µM (inactive)
SF-295
  GI50: 43.1 µM (inactive)
A498
  GI50: > 100 µM (inactive)
LOX IMVI
  GI50: 21.5 µM (inactive)
SK-MEL-28
  GI50: 49.3 µM (inactive)
OVCAR-4
  GI50: 47 µM (inactive)
K562
  GI50: 11.9 µM (inactive)
SK-MEL-2
  GI50: 34.7 µM (inactive)
OVCAR-8
  GI50: 32.4 µM (inactive)
CCRF-CEM
  GI50: 33.3 µM (inactive)
NCI/ADR-RES
  GI50: 27.4 µM (inactive)
HCT-15
  GI50: 28 µM
DU-145
  GI50: 32.3 µM (inactive)
HCT-116
  GI50: 37.1 µM (inactive)
NCI-H460
  GI50: 31.7 µM (inactive)
UO-31
  GI50: 35.3 µM (inactive)
HOP-62
  GI50: 41.2 µM (inactive)
T47D
  GI50: 47 µM (inactive)
SNB-75
  GI50: 42.3 µM (inactive)
HCC 2998
  GI50: 43.6 µM (inactive)
786-0
  GI50: 54.3 µM (inactive)
M14
  GI50: 26.6 µM (inactive)
NCI-H23
  GI50: 26.5 µM (inactive)
MOLT-4
  GI50: 20.2 µM (inactive)
MCF7
  GI50: 33.3 µM (inactive)
MDA-MB-435
  GI50: 31.9 µM (inactive)
UACC-257
  GI50: 43.1 µM (inactive)
PC-3
  GI50: 35.8 µM (inactive)
MDA-MB-231
  GI50: 75.9 µM (inactive)
SK-MEL-5
  GI50: 52 µM (inactive)
UACC-62
  GI50: 23.9 µM (inactive)

## OC(c1cc(-c2ccc(C(F)(F)F)cc2)nc(C(F)(F)F)c1)C1CCCCN1 (centres undefined) [ENPIROLINE PHOSPHATE]
Malme-3M
  GI50: 1.78 µM (inactive)
NCI-H522
  GI50: 1.69 µM (inactive)
COLO 205
  GI50: 1.82 µM (inactive)
KM12
  GI50: 1.87 µM (inactive)
SR
  GI50: 2.33 µM (inactive)
HT-29
  GI50: 1.95 µM (inactive)
HL-60
  GI50: 2.01 µM (inactive)
SK-OV-3
  GI50: 2.3 µM (inactive)
U-251
  GI50: 1.88 µM (inactive)
MDA-N
  GI50: 1.67 µM (inactive)
SW-620
  GI50: 1.85 µM (inactive)
CAKI-1
  GI50: 5.53 µM (inactive)
RPMI-8226
  GI50: 2.61 µM (inactive)
A498
  GI50: 2.24 µM (inactive)
LOX IMVI
  GI50: 1.73 µM (inactive)
OVCAR-4
  GI50: 1.87 µM (inactive)
RXF 393
  GI50: 1.78 µM (inactive)
SK-MEL-2
  GI50: 2.02 µM (inactive)
CCRF-CEM
  GI50: 1.87 µM (inactive)
NCI/ADR-RES
  GI50: 2.62 µM (inactive)
HCT-15
  GI50: 2.18 µM
HCT-116
  GI50: 2 µM (inactive)
NCI-H460
  GI50: 2.08 µM (inactive)
HCC 2998
  GI50: 1.69 µM (inactive)
786-0
  GI50: 1.89 µM (inactive)
M14
  GI50: 1.55 µM (inactive)
MOLT-4
  GI50: 1.86 µM (inactive)
IGROV-1
  GI50: 1.73 µM (inactive)
MCF7
  GI50: 1.8 µM (inactive)
MDA-MB-435
  GI50: 1.86 µM (inactive)
UACC-257
  GI50: 2.03 µM (inactive)
PC-3
  GI50: 2.49 µM (inactive)
UACC-62
  GI50: 1.78 µM (inactive)
